Experimental data as given in patent US20090004185A1, “AMINO-SUBSTITUTED QUINAZOLINE DERIVATIVES AS INHIBITORS OF BETA-CATENIN/TCF-4 PATHWAY AND CANCER TREATMENT AGENTS” (WYETH, priority 2007, published 2009).

Tests used:
β-catenin/Tcf-4 = test: cells; assay type: cell-based; conditions: 24 hours of incubation with compound, ratio Firefly/Renilla luciferase
Description: Background cell line: SW480 colorectal carcinoma DNA constructs:
1) Tcf-4-Luc: Tcf-4 binding sites driving Firefly Luciferase in the pGL3 vector—to measure the activity of β-catenin/Tcf-4;
(§1) 2) SV40-Luc: SV40 binding site driving Firefly Luciferase in the pGL3 vector—as a control for non-specific inhibitors; and
(§2) 3) SV40-R-Luc: SV40 binding site driving Renilla Luciferase in the pGL3 vector—as an internal control for cell number and toxicity.
This screen uses 3 cell lines derived from SW480 and selected to contain the above luciferase reporters integrated into their chromosomes as follows: […]
(§3) Cells: Tcf22C11 and SV5A8 were grown in the presence of 500 μg/ml G418 and Tcf 33.13 was grown in the presence of 500 μg/ml G418+125 μg/ml Zeocin to maintain the integrated reporters. The cells were trypsinized and plated at 1×10^4 cells/well in opaque 96 well plates.
The compounds were diluted as follows: The compounds were stored frozen in dimethyl sulfoxide (DMSO) at […]. Compounds were initially titrated in DMSO to make a 1000×DMSO stock solution. Compounds were then diluted 1:25 into media/DMSO (DMEM+10% FBS+9% DMSO). Using the Biomek Multimek, the diluted compounds were mixed well and immediately added to the plated cells in a 1:40 dilution. The final concentration of DMSO in the assay plates was 0.316% DMSO.
(§4) Assay Readout: The luciferase signal was detected using a luciferase detection kit from Promega. Until December 2003, Promega's Dual-Luciferase® Reporter (DLR™) Assay System was used to detect luciferase activity. Briefly, after 24 hours of incubation with compound, culture media was removed by aspiration and 20 ul of passive lysis buffer (Promega) per well was added. The plates were shaken for 15 min. Firefly substrate was then added and the resulting luminescence was immediately read on a CCD camera imaging device or a luminometer. After quantifying the firefly luminescence, the reaction was quenched, and the Renilla luciferase reaction was initiated simultaneously by adding Stop & Glo® Reagent to the same sample. Renilla luciferase was then quantified using the CCD camera or luminometer.
Promega's Dual-Glo™ Luciferase Assay System can be used for luciferase detection. […] Briefly, after 24 hours of incubation with compound, culture media was removed by aspiration and 75 ul of fresh medium was added. Add 75 ul of Dual-Glo Luciferase Reagent (Promega) to each well and mix by shaking for 10 minutes on a plate shaker. Then, measure the firefly luminescence on a CCD camera imaging device or a luminometer. After quantifying the firefly luminescence, add 75 ul of Dual-Glo Stop & Glo Reagent (Promega) to each well and mix for 10 minutes. Renilla luciferase was then quantified using the CCD camera or luminometer.
(§5) This assay was meant to confirm primary leads and determine IC50s. Compounds were tested at titrated dilutions. The raw data for this assay was reported in protocol 2463-B. Protocol 2463-C contains the IC50 calculations based on the raw data. The data calculations were done as follows:
(§6) The data was expressed as % of control for both Firefly and Renilla Luciferase. The ratio of FF/Renilla (F/R) was then calculated and averaged between duplicate plates. The data was then plotted using LSW Data Analysis in Microsoft Excel. IC50s were determined by plotting the data in the LSW Data Analysis program using model 33. The IC50s (nM) for all three cell lines were reported.

SV40-Luc = SV40-Luc control luciferase reporter assay, SV 5A8 cell line (SV40-Luc and SV40-R-Luc), control for non-specific inhibitors; assay type: cell-based, human; conditions: Homo sapiens, SV5A8, 24 h, SV 5A8 cells derived from SW480; 24 hours of incubation with compound; ratio Firefly/Renilla luciferase
Description: Background cell line: SW480 colorectal carcinoma DNA constructs: […]
as §1, §2
This screen uses 3 cell lines derived from SW480 and selected to contain the above luciferase reporters integrated into their chromosomes as follows:
SV 5A8—SV40-Luc and SV40-R-Luc
as §3
Compounds: 20-24 hours after cell plating, compounds were added at titrated concentrations between […]. The compounds were diluted as follows: The compounds were stored frozen in dimethyl sulfoxide (DMSO) at […]. Compounds were initially titrated in DMSO to make a 1000×DMSO stock solution. Compounds were then diluted 1:25 into media/DMSO (DMEM+10% FBS+9% DMSO). Using the Biomek Multimek, the diluted compounds were mixed well and immediately added to the plated cells in a 1:40 dilution. The final concentration of DMSO in the assay plates was 0.316% DMSO.
as §4
Promega's Dual-Glo™ Luciferase Assay System can be used for luciferase detection. It was similar to the DLR Assay, however, unlike the DLR which has to be read immediately due to decaying signal, the signal in the Dual-Glo™ Luciferase Assay was stable for up to 2 hours. Briefly, after 24 hours of incubation with compound, culture media was removed by aspiration and 75 ul of fresh medium was added. Add 75 ul of Dual-Glo Luciferase Reagent (Promega) to each well and mix by shaking for 10 minutes on a plate shaker. Then, measure the firefly luminescence on a CCD camera imaging device or a luminometer. After quantifying the firefly luminescence, add 75 ul of Dual-Glo Stop & Glo Reagent (Promega) to each well and mix for 10 minutes. Renilla luciferase was then quantified using the CCD camera or luminometer.
as §5, §6

[1] = Homo sapiens, SW480, 24 h, Tcf 33.13 cells derived from SW480
[2] = Homo sapiens, Tcf22C11, 24 h, Tcf 22C11 cells derived from SW480

Row | IC50 (β-catenin/Tcf-4; [1]) [nM] | IC50 (β-catenin/Tcf-4; [2]) [nM] | IC50 (SV40-Luc) [nM] | IC50 (β-catenin/Tcf-4; Tcf 22C11 cells derived from SW480) [nM] | IC50 (β-catenin/Tcf-4; Tcf 33.13 cells derived from SW480) [nM] | Structure (SMILES)
1 | 402 | 526 | > 5370 | – | – | CNc1nc(NCc2ccc(NC(=O)c3ccc(C(F)(F)F)cc3)cc2)c2cc(C)ccc2n1 [Example 27, N-[4-({[6-methyl-2-(methylamino)quinazolin-4-yl]amino}methyl)phenyl]-4-(trifluoromethyl)benzamide]
2 | 904 | > 1390 | > 1390 | – | – | CNc1nc(NCc2ccc(NC(=O)c3ccc(F)cc3Cl)cc2)c2cc(C)ccc2n1 [Example 28, 2-chloro-4-fluoro-N-[4-({[6-methyl-2-(methylamino)quinazolin-4-yl]amino}methyl)phenyl]benzamide]
3 | 756 | 988 | > 2800 | – | – | CNc1nc(NCc2ccc(NC(=O)c3ccc(Cl)cc3)cc2)c2cc(C)cc(C)c2n1 [Example 29, 4-chloro-N-[4-({[6,8-dimethyl-2-(methylamino)quinazolin-4-yl]amino}methyl)phenyl]benzamide]
4 | 1870 | 2100 | > 5820 | – | – | CNc1nc(NCc2ccc(NC(=O)c3ccc(F)cc3)cc2)c2cc(C)cc(C)c2n1 [Example 30, N-[4-({[6,8-dimethyl-2-(methylamino)quinazolin-4-yl]amino}methyl)phenyl]-4-fluorobenzamide]
5 | 4120 | 5950 | > 22300 | – | – | CNc1nc(NCc2ccc(NC(=O)c3ccc(Cl)nc3)cc2)c2cc(OC)ccc2n1 [Example 31, 6-chloro-N-[4-({[6-methoxy-2-(methylamino)quinazolin-4-yl]amino}methyl)phenyl]nicotinamide]
6 | 81 | 100 | > 577 | – | – | CNc1nc(NCc2ccc(NC(=O)c3ccc(F)c(F)c3)cc2)c2cc(C)ccc2n1 [Example 32, 3,4-difluoro-N-[4-({[6-methyl-2-(methylamino)quinazolin-4-yl]amino}methyl)phenyl]benzamide]
7 | 1720 | 1280 | > 2790 | – | – | CNc1nc(NCc2ccc(NC(=O)c3ccc(Cl)cc3)cc2)c2cc(OC)ccc2n1 [Example 33, 4-chloro-N-[4-({[6-methoxy-2-(methylamino)quinazolin-4-yl]amino}methyl)phenyl]benzamide]
8 | 3230 | 4190 | > 11500 | – | – | CNc1nc(NCc2ccc(NC(=O)c3ccc(F)cc3F)cc2)c2cc(C)ccc2n1 [Example 34, 2,4-difluoro-N-[4-({[6-methyl-2-(methylamino)quinazolin-4-yl]amino}methyl)phenyl]benzamide]
9 | > 21600 | > 21600 | > 21600 | – | – | CNc1nc(NCc2ccc(NC(=O)c3ccc(Cl)cc3F)cc2)c2cc(C)cc(C)c2n1 [Example 35, 4-chloro-N-[4-({[6,8-dimethyl-2-(methylamino)quinazolin-4-yl]amino}methyl)phenyl]-2-fluorobenzamide]
10 | 866 | 1170 | > 5590 | – | – | Cc1ccc2nc(N(C)C)nc(NCc3ccc(NC(=O)c4ccc(F)c(F)c4)cc3)c2c1 [Example 36, N-[4-({[2-(dimethylamino)-6-methylquinazolin-4-yl]amino}methyl)phenyl]-3,4-difluorobenzamide]
11 | 5280 | > 10700 | > 21400 | – | – | CNc1nc(NCc2ccc(NC(=O)c3ccc(Cl)c(Cl)c3)cc2)c2cc(C)ccc2n1 [Example 37, 3,4-dichloro-N-[4-({[6-methyl-2-(methylamino)quinazolin-4-yl]amino}methyl)phenyl]benzamide]
12 | – | – | > 11600 | 1620 | 2050 | Cc1ccc2nc(N(C)C)nc(NCc3ccc(NC(=O)c4ccc(F)cc4)cc3)c2c1 [Example 38, N-[4-({[2-(dimethylamino)-6-methylquinazolin-4-yl]amino}methyl)phenyl]-4-fluorobenzamide]
